The text below walks through data of patent US8513286B2, “Iminipyridine derivatives and their uses as microbiocides” (Syngenta Crop Protection LLC, priority 2007, dated 2013).

Each structure is given as a SMILES string.

What all share (type): in vivo
Assay [1] deals with Erysiphe graminis f.sp. hordei. Nature of the assay: Erysiphe graminis f.sp. hordei, powdery mildew of barley, curative test on barley leaf segments. Conditions: Blumeria graminis, foliar, 168 h; application rate 200 ppm; barley leaf segments sprayed 24 h after inoculation; assessed 7 days after inoculation; 0=no control, 100%=complete control; read-out: curative fungicidal activity, percent efficacy relative to untreated infected control. The method, then:
Erysiphe graminis f.sp. hordei: Powdery Mildew of Barley, Curative Test Erysiphe graminis f.sp. hordei (Barley powdery mildew): Barley leaf segments are placed on agar in multiwell plates (24-well format). The leaf disks are inoculated with spores of the fungus (120 conidia/mm2). After 24 h the leaf disks are sprayed with the formulated (2% Dimethylsulfoxid, 0,025% Tween 20) test solutions. After appropriate incubation, the curative fungicidal activity of a compound is assessed 7 days after inoculation as disease damage on the leaf disks and calculated as percent efficacy relative to untreated infected control (0=no control of Erysiphe graminis f.sp. hordei, 100%=complete control). In this test, compounds listed in Table P above show good activity.

In a further assay the test system is Pyrenophora teres. Nature of the assay: Pyrenophora teres, net blotch of barley, preventative test on barley leaf segments. The conditions noted are these: foliar, 96 h, application rate 200 ppm, assessed 4 days after inoculation, 0=no control, 100%=complete control, read-out: preventive fungicidal activity, percent efficacy relative to untreated infected control. How it is done: Pyrenophora teres: Net Blotch of Barley, Preventative Test Method Description Pyrenophora teres (Net blotch): Barley leaf segments are placed on agar in multiwell plates (24-well format) and sprayed with the formulated (2% Dimethylsulfoxid, 0,025% Tween 20) test solutions. After drying, the leaf disks are inoculated with a spore suspension of the fungus (25'000 conidia/ml). After appropriate incubation, the preventive fungicidal activity of a compound is assessed 4 days after inoculation as disease damage on the leaf disks and calculated as percent efficacy relative to untreated infected control (0=no control of Pyrenophora teres, 100%=complete control). In this test, compounds listed in Table P above show good activity.

Assay [2] concerns Erysiphe graminis f.sp. tritici. Nature of the assay: Erysiphe graminis f.sp. tritici, wheat powdery mildew, preventative test on wheat leaf segments. The conditions noted are these: Blumeria graminis, foliar, 168 h, application rate 200 ppm, assessed 7 days after inoculation, 0=no control, 100%=complete control, read-out: preventive fungicidal activity, percent efficacy relative to untreated infected control. How it is done:
Erysiphe graminis f.sp. tritici: Wheat Powdery Mildew, Preventative Test Erysiphe graminis f.sp. tritici (Wheat powdery mildew): Wheat leaf segments are placed on agar in multiwell plates (24-well format) and sprayed with the formulated (2% Dimethylsulfoxid, 0,025% Tween 20) test solutions. After drying, the leaf disks are inoculated with spores of the fungus (50 conidia/mm2). After appropriate incubation, the preventive fungicidal activity of a compound is assessed 7 days after inoculation as disease damage on the leaf disks and calculated as percent efficacy relative to untreated infected control. (0=no control of Erysiphe graminis f.sp. tritici, 100%=complete control). In this test, compounds listed in Table P above show good activity.

Assay [3] concerns Puccinia recondita. Nature of the assay: Puccinia recondita, brown rust of wheat, preventative test on wheat leaf segments. The conditions noted are these: foliar, 192 h, application rate 200 ppm, assessed 8 days after inoculation, 0=no control, 100%=complete control, read-out: preventive fungicidal activity, percent efficacy relative to untreated infected control. The method, then: Puccinia recondite: Brown Rust of Wheat, Preventative Test Puccinia recondita (Brown rust): Wheat leaf segments are placed on agar in multiwell plates (24-well format) and sprayed with the formulated (2% Dimethylsulfoxid, 0,025% Tween 20) test solutions. After drying, the leaf disks are inoculated with a spore suspension of the fungus (45'000 conidia/ml). After appropriate incubation, the preventive fungicidal activity of a compound is assessed 8 days after inoculation as disease damage on the leaf disks and calculated as percent efficacy relative to untreated infected control (0=no control of Puccinia recondita, 100%=complete control). In this test, compounds listed in Table P above show good activity.

The next assay relates to Plasmopara viticola. Nature of the assay: Plasmopara viticola, downy mildew of grapevine, preventative test on grape vine leaf disks. Conditions: application rate 200 ppm, assessed 6 days after inoculation, 0=no control, 100%=complete control. How it is done:
Plasmopara viticola: Downy Mildew of Grapevine, Preventative Test Plasmopara viticola (downy mildew of grapevine): Grape vine leaf disks are placed on agar in multiwell plates (24-well format) and sprayed with the formulated (2% Dimethylsulfoxid, 0,025% Tween 20) test solutions. After drying, the leaf disks are inoculated with a spore suspension of the fungus (80′000 conidia/ml). After appropriate incubation, the preventive fungicidal activity of a compound is assessed 6 days after inoculation as disease damage on the leaf disks and calculated as percent efficacy relative to untreated infected control. (0=no control of Plasmopara viticola, 100%=complete control). In this test, compounds listed in Table P above show good activity.

The subject of assay [4] is Puccinia recondita. The experiment in a line: Puccinia recondita, brown rust of wheat, curative test on wheat leaf segments. Conditions: foliar, 192 h, application rate 200 ppm, wheat leaf segments treated one day after inoculation, assessed 8 days after inoculation, 0=no control, 100%=complete control, read-out: curative fungicidal activity, percent efficacy relative to untreated infected control.

As to `CCN(C)/C=N/c1ccc(Oc2ccc(Cl)cc2Cl)nc1` [P.01], the pest or weed control at 200 ppm in assay [1] is at least 50%.
For the molecule `CN(C)/C=N/c1ccc(Oc2ccc(Cl)cc2Cl)nc1` [P.03], the pest or weed control at 200 ppm in assay [1] was at least 50%.
In the case of `C#CC(C)N(C)/C=N/c1ccc(Oc2ccc(Cl)cc2Cl)nc1` (centres unmarked) [P.04], the pest or weed control at 200 ppm in assay [1] was at least 50%.
For `CC(C)c1cc(Oc2ccc(Cl)c(Cl)c2)nc(C(C)C)c1/N=C/N(C)C` [P.05], the pest or weed control at 200 ppm in the assay with Pyrenophora teres was at least 50%.
As for `Cc1cc(Oc2ccc(Cl)c(C(F)(F)F)c2)ncc1/N=C/N(C)C` [P.06], the pest or weed control at 200 ppm in assay [1] was at least 50%.
Take `CCN(C)/C=N/c1ccc(Oc2ccc(Cl)c(C(F)(F)F)c2)nc1C` [P.07]: the pest or weed control at 200 ppm (in assay [2]; in assay [1]; in the assay with Puccinia recondita [3]) was at least 50% each time.
Take `CCN/C=N/c1cnc(Oc2ccc(Cl)c(C(F)(F)F)c2)c(C)c1` [P.08]: the pest or weed control at 200 ppm (in assay [1]; in the assay with Pyrenophora teres) was at least 50% in each case.
As for `Cc1cc(/N=C/N(C)C)cnc1Oc1ccc(Cl)c(C(F)(F)F)c1` [P.09], the pest or weed control at 200 ppm (in assay [2]; with Pyrenophora teres) was at least 50% each time.
Turning to `C#CC(C)N(C)/C=N/c1cnc(Oc2ccc(Cl)c(C(F)(F)F)c2)c(C)c1` (centres unmarked) [P.10], the “preventive fungicidal activity, percent efficacy relative to untreated infected control” value in the assay with Plasmopara viticola is recorded as “at least 50%”.
Turning to `CCN(C)/C=N/c1cnc(Oc2ccc(Cl)c(C(F)(F)F)c2)cc1C` [P.11], the pest or weed control at 200 ppm (in assay [1]; in the assay on Puccinia recondita [3]) was at least 50% in each case.
With `Cc1cc(/N=C/N(C)C)cnc1Oc1cccc(C(C)(C)C)c1` [P.14], the pest or weed control at 200 ppm in assay [1] is at least 50%.
The same measure, in the same setting: the same measure for `CN(C)/C=N/c1ccc(Oc2ncc(C(F)(F)F)cc2Cl)nc1` [P.15]: at least 50%; for `Cc1cc(/N=C/N(C)c2ccccn2)cnc1Oc1ccc(Cl)c(C(F)(F)F)c1` [P.16]: at least 50%; for `CCN(C)/C=N/c1cnc(Oc2cccc(C(C)(C)C)c2)c(C)c1` [P.17]: at least 50%.
The same measure, in the same setting: under `CCN(C)/C=N/c1cnc(Oc2ccc(Cl)c(C(F)(F)F)c2)c(C)c1` [P.19] stands at least 50%.
As to `COc1ccc(Oc2ccc(/N=C/N(C)C)cn2)cc1` [P.21], the pest or weed control at 200 ppm in assay [2] was at least 50%.
In the case of `CN(C)/C=N/c1ccc(Oc2ccc(Cl)cc2)nc1` [P.22], the pest or weed control at 200 ppm in assay [2] is at least 50%.
For `CCN(C)/C=N/c1cc(Br)c(OCCCC(C)C)nc1C` [P.26], the pest or weed control at 200 ppm (in assay [2]; in the assay with Puccinia recondita [3]; in the assay on Puccinia recondita [4]) was at least 50% in each case.
Take `CCN(C)/C=N/c1ccc(OCCCC(C)C)nc1C` [P.28]: the pest or weed control at 200 ppm (in assay [2]; with Puccinia recondita [3]; with Puccinia recondita [4]) was at least 50% throughout.
Regarding `CCN(C)/C=N/c1cc(-c2ccc(F)cc2)c(Oc2ccc(Cl)c(C(F)(F)F)c2)nc1C` [P.30], the pest or weed control at 200 ppm in assay [2] is at least 50%.
Regarding `CCN(C)/C=N/c1cc(C#C[Si](C)(C)C)c(Oc2ccc(Cl)c(C(F)(F)F)c2)nc1C` [P.31], the pest or weed control at 200 ppm in the assay with Puccinia recondita [3] and with Puccinia recondita [4] was at least 50% in each case.
Turning to `Cc1nc(OCCCC(C)C)c(Br)cc1NC(=S)N(C)C(C)C` [P.35], the pest or weed control at 200 ppm (in assay [2]; in the assay on Puccinia recondita [3]; in the assay with Puccinia recondita [4]) was at least 50% each time.
For `CCN(C)/C=N/c1cnc(Oc2cccc(C(F)(F)F)c2)cc1C` [P.36], the pest or weed control at 200 ppm in the assay on Puccinia recondita [4] was at least 50%.
For the molecule `CCN(C)/C=N/c1cc(C#N)c(Oc2cc(F)cc(F)c2)nc1C` [P.41], the pest or weed control at 200 ppm in the assay on Puccinia recondita [4] is at least 50%.
As for `CCN(C)/C=N/c1cc(Cl)c(OCCCC(C)C)nc1C` [P.46], the pest or weed control at 200 ppm with Pyrenophora teres is at least 50%.
As for `CCN(C)/C=N/c1cnc(Oc2cccc(C(F)(F)F)c2)c(Br)c1C` [P.51], the pest or weed control at 200 ppm with Puccinia recondita [3] is at least 50%.
With `CCN(C)/C=N/c1ccc(OCCCC(C)C)nc1OC` [P.58], the pest or weed control at 200 ppm with Puccinia recondita [3] and in the assay on Puccinia recondita [4] was at least 50% throughout.
In the case of `CCN(C)/C=N/c1cc(Cl)c(OCCCC(C)C)nc1OC` [P.59], the pest or weed control at 200 ppm (in assay [2]; in the assay with Puccinia recondita [3]; in the assay on Puccinia recondita [4]) was at least 50% each time.
For the molecule `CCN(C)/C=N/c1cc(Br)c(OCCCC(C)C)nc1OC` [P.61], the pest or weed control at 200 ppm (in assay [2]; in the assay on Puccinia recondita [3]; with Puccinia recondita [4]) was at least 50% throughout.
In the case of `CCN(C)/C=N/c1cc(Br)c(OC2CCc3ccccc3C2)nc1C` (centres unmarked) [P.62], the pest or weed control at 200 ppm (in assay [2]; with Puccinia recondita [3]; with Puccinia recondita [4]; with Pyrenophora teres) was at least 50% in each case.
Take `CCN(C)/C=N/c1cc(OC)c(Oc2ccc(Cl)c(C(F)(F)F)c2)nc1Cl` [P.63]: in assay [2], the pest or weed control at 200 ppm was at least 50%.
As to `CCN(C)/C=N/c1cc(Cl)c(OCCCC(C)C)nc1Br` [P.64], the pest or weed control at 200 ppm (in assay [2]; with Puccinia recondita [3]; with Puccinia recondita [4]; with Pyrenophora teres) was at least 50% in each case.
For `CCN(C)/C=N/c1cc(OC)c(Oc2ccc(Cl)c(C(F)(F)F)c2)nc1Br` [P.68], in assay [2], the pest or weed control at 200 ppm was at least 50%.
As to `CCN(C)/C=N/c1cc(Br)c(OCCCC(C)C)nc1Br` [P.69], the pest or weed control at 200 ppm (in assay [2]; with Puccinia recondita [4]; with Pyrenophora teres) was at least 50% throughout.
`CCN(C)/C=N/c1cc(OC)c(OCCCC(C)C)nc1Br` [P.70]: the pest or weed control at 200 ppm in the assay with Puccinia recondita [3] and with Puccinia recondita [4] was at least 50% throughout.
On to `CCN(C)/C=N/c1cc(OC)c(OCCCC(C)C)nc1Cl` [P.73], for which the pest or weed control at 200 ppm (in assay [2]; in the assay with Puccinia recondita [3]; in the assay on Puccinia recondita [4]; in the assay on Pyrenophora teres) was at least 50% in each case.
Turning to `CCN(C)/C=N/c1cc(Br)c(Oc2cccc3ccccc23)nc1C` [P.76], the pest or weed control at 200 ppm (in assay [2]; in the assay on Puccinia recondita [3]; with Puccinia recondita [4]) was at least 50% in each case.
On to `CCN(C)/C=N/c1cc(Br)c(Oc2ccc3ccccc3c2)nc1C` [P.77], for which the pest or weed control at 200 ppm (in assay [2]; in the assay with Puccinia recondita [3]; in the assay on Puccinia recondita [4]) was at least 50% each time.
For `CCN(C)/C=N/c1cc(Br)c(Oc2ccc3ncc(Br)cc3c2)nc1C` [P.78], the pest or weed control at 200 ppm in assay [2] was at least 50%.
With `CCN(C)/C=N/c1cc(Br)c(Oc2cc(Cl)c3ncc(Br)cc3c2)nc1C` [P.79], the pest or weed control at 200 ppm with Puccinia recondita [3] was at least 50%.
With `CCN(C)/C=N/c1cc(Cl)c(OCCCC(C)C)nc1C#N` [P.81], in the assay with Puccinia recondita [4], the pest or weed control at 200 ppm was at least 50%.
Consider `CCN(C)/C=N/c1cc(Br)c(OC2CCc3cc(OC)ccc3C2)nc1C` (centres unmarked) [P.82], for which the pest or weed control at 200 ppm (in assay [2]; in the assay with Puccinia recondita [3]; in the assay with Puccinia recondita [4]) was at least 50% throughout.
